Results reported in patent US10011616B2, “Boron-containing small molecules as antiprotozoal1 agents” (MMV MEDICINES FOR MALARIA VENTURE, priority 2015, dated 2018).
Counter-ions that a name gives are not always drawn.

Tests used:
[1] = system: 3D7 strain of Plasmodium falciparum; experiment: In vitro activity against 3D7 strain of Plasmodium falciparum ([3H]-hypoxanthine incorporation assay); format: cell-based; conditions: Erythrocyte, 48 h, P. falciparum 3D7 in human erythrocytes, 2 d, growth inhibition, read-out: IC50: 1 Org. Growth P. falciparum 3D7, 2 d (LPS_00570)
Protocol: In Vitro Activity Against Plasmodium falciparum a) Against 3D7 Strain of Plasmodium falciparum Inhibition of 3D7 strain parasites was assessed using the [^3H]-hypoxanthine incorporation assay (Desjardins, et al. Antimicrob. Agents Chemother. 1979, 16, 710-718). Briefly, parasites were cultured in human erythrocytes (from the Spanish Red Cross blood bank) using RPMI-1640 culture media (Gibco) supplemented with 0.5% Albumax II (Invitrogen), 2% D-sucrose (Sigma-Aldrich), 0.3% glutamine (Sigma-Aldrich), and 5 mM hypoxanthine (Sigma-Aldrich). Cultures were maintained at 37° C. at an atmosphere of 5% O2, 5% CO2, and […]. To assess inhibition, asynchronous parasite cultures with 0.5% parasitemia and 2% hematocrit were exposed to 3-fold serial dilutions of test compounds for 24 hours in 96 well plate cultures (Costar #3894). After 24 hours, [^3H]-hypoxanthine was added, plates were incubated for an additional 24 hours, and parasites were harvested on glass fiber filters (Wallac #1450-421) using a cell harvester 96 (TOMTEC, Perkin Elmer). Filters were dried on scintillator sheets (MeltiLex A, PerkinElmer #1450-441) to determine incorporation of [^3H]-hypoxanthine. Radioactivity was measured using a microbeta counter (Perkin Elmer). Data are normalized using the incorporation of the positive control (infected erythrocytes without drug). IC50 values were determined using Excel and Grafit 5 software. Values were determined from at least three independent experiments, and standard deviations were calculated.

[2] = system: W2 strain of Plasmodium falciparum; experiment: In vitro activity against W2 strain of Plasmodium falciparum (YOYO-1 flow cytometry); format: cell-based; conditions: Erythrocyte, 48 h, P. falciparum W2 in human erythrocytes, 2 d, growth inhibition, read-out: IC50: 1 Org. Growth P. falciparum W2, 2 d (LPS_00451)
Protocol: In Vitro Activity Against Plasmodium falciparum
b) Against W2 Strain of Plasmodium falciparum
W2 strain P. falciparum parasites were cultured in human erythrocytes and RPMI-1640 culture media with either 10% human serum or 0.5% Albumax serum substitute under 3% O2, 5% CO2, and 92% N2. Parasites synchronized to ring stage by treatments with 5% D-sorbitol were cultured with serial dilutions of benzoxaboroles from 5 to 10 mM stocks in 96 well microplate cultures including 200 μL of media/well, 2% hematocrit, and 1% parasitemia. At the completion of 48 h incubations, when untreated cultures contained new rings, parasites were fixed with 2% formaldehyde for 48 h, and 5 μL aliquots were transferred to another 96 well plate containing 150 μL/well of staining solution (100 mM NH4Cl, 0.1% Triton X-100, and 1 nM YOYO-1 in PBS). Parasites per erythrocyte were then determined by flow cytometry from plots of forward scatter against fluorescence (excitation 488 nm, emission 520 nm) using a FacSort flow cytometer (Beckton Dickinson) equipped with an AMS Loader (Cytek Development). All values were normalized to percent control activity, and IC50s were calculated using the Prism 3.0 program (GRAPHPAD Software). Goodness of fit was assessed by R^2 values, and meaningful dose-response curves yielded R^2 values >0.95.

C=C[C@H](CO)NC(=O)c1cnc(Oc2ccc3c(c2C)B(O)OC3)cn1 [Example 30, (R)-5-(1-hydroxy-7-methyl-1,3-dihydrobenzo[c][1,2]oxaborol-6-yloxy)-N-(1-hydroxybut-3-en-2-yl)pyrazine-2-carboxamide]
IC50 [1]: 536 nM
IC50 [2]: 317 nM

Cc1c(Oc2cnc(C(=O)NC(CO)C(C)C)cn2)ccc2c1B(O)OC2 (stereo not drawn) [Example 7, N-(1-hydroxy-3-methylbutan-2-yl)-5-(1-hydroxy-7-methyl-1,3-dihydrobenzo[c][1,2]oxaborol-6-yloxy)pyrazine-2-carboxamide]
IC50 [1]: 96.5 nM
IC50 [2]: 115 nM

Cc1c(Oc2cnc(C(=O)NC(CO)CC(C)C)cn2)ccc2c1B(O)OC2 (stereo not drawn) [Example 8, N-(1-hydroxy-4-methylpentan-2-yl)-5-((1-hydroxy-7-methyl-1,3-dihydrobenzo[c][1,2]oxaborol-6-yl)oxy)pyrazine-2-carboxamide]
IC50 [1]: 937 nM
IC50 [2]: 930 nM

Cc1c(Oc2cnc(C(=O)N[C@H](CO)C(C)C)cn2)ccc2c1B(O)OC2 [Example 23, (S)—N-(1-hydroxy-3-methylbutan-2-yl)-5-(1-hydroxy-7-methyl-1,3-dihydrobenzo[c][1,2]oxaborol-6-yloxy)pyrazine-2-carboxamide]
IC50 [1]: 1990 nM
IC50 [2]: 774 nM

Cc1c(Oc2cnc(C(=O)N[C@H](C)C(C)(C)O)cn2)ccc2c1B(O)OC2 [Example 48, (R)—N-(3-hydroxy-3-methylbutan-2-yl)-5-(1-hydroxy-7-methyl-1,3-dihydrobenzo[c][1,2]oxaborol-6-yloxy)pyrazine-2-carboxamide]
IC50 [1]: 374 nM
IC50 [2]: 265 nM

Cc1c(Oc2cnc(C(=O)N[C@@H](CO)C3CC3)cn2)ccc2c1B(O)OC2 [Example 24, (R)—N-(1-cyclopropyl-2-hydroethyl)-5-(1-hydroxy-7-methyl-1,3-dihydrobenzo[c][1,2]oxaborol-6-yloxy)pyrazine-2-carboxamide]
IC50 [1]: 587 nM
IC50 [2]: 492 nM

Cc1c(Oc2cnc(C(=O)N3CCNC[C@@H]3CO)cn2)ccc2c1B(O)OC2 [Example 51, (R)-(5-(1-hydroxy-7-methyl-1,3-dihydrobenzo[c][1,2]oxaborol-6-yloxy)pyrazin-2-yl) (2-(hydroxymethyl)piperazin-1-yl)methanone Hydrochloric Acid Salt]
IC50 [1]: 151 nM
IC50 [2]: 103 nM

Cc1c(Oc2cnc(C(=O)N[C@H](CO)CC(F)(F)F)cn2)ccc2c1B(O)OC2 [Example 34, (S)-5-(1-hydroxy-7-methyl-1,3-dihydrobenzo[c][1,2]oxaborol-6-yloxy)-N-(4,4,4-trifluoro-1-hydroxybutan-2-yl)pyrazine-2-carboxamide]
IC50 [1]: 452 nM
IC50 [2]: 350 nM

Cc1c(Oc2cnc(C(=O)N(C)CCO)cn2)ccc2c1B(O)OC2 [Example 10, 5-(1-hydroxy-7-methyl-1,3-dihydrobenzo[c][1,2]oxaborol-6-yloxy)-N-(2-hydroxyethyl)-N-methylpyrazine-2-carboxamide]
IC50 [1]: 437 nM
IC50 [2]: 262 nM

CCCC[C@H](CO)NC(=O)c1cnc(Oc2ccc3c(c2C)B(O)OC3)cn1 [Example 28, (R)-5-(1-hydroxy-7-methyl-1,3-dihydrobenzo[c][1,2]oxaborol-6-yloxy)-N-(1-hydroxyhexan-2-yl)pyrazine-2-carboxamide]
IC50 [1]: 215 nM
IC50 [2]: 84.9 nM

Cc1c(Oc2cnc(C(=O)N[C@@H](C)CO)cn2)ccc2c1B(O)OC2 [Example 12, (S)-5-(1-hydroxy-7-methyl-1,3-dihydrobenzo[c][1,2]oxaborol-6-yloxy)-N-(1-hydroxypropan-2-yl)pyrazine-2-carboxamide]
IC50 [1]: 808 nM
IC50 [2]: 844 nM

Cc1c(Oc2cnc(C(=O)NCCO)cn2)ccc2c1B(O)OC2 [Example 1, 5-((1-hydroxy-7-methyl-1,3-dihydrobenzo[c][1,2]oxaborol-6-yl)oxy)-N-(2-hydroxyethyl)pyrazine-2-carboxamide]
IC50 [1]: 1080 nM
IC50 [2]: 372 nM
